Here are results for ten substances from article PMC4957924, “Prediction and verification of novel peptide targets of protein tyrosine phosphatase 1B” (Bioorganic & Medicinal Chemistry, 2016).

Where two headings read alike, the source gives them in different places.

Data set [1] concerns the target T1, PTP1B (Homo sapiens, UniProt P18031).
T1 construct: PTP1B was expressed and purified as described previously; made in house
T1 sequence (P18031 1-435): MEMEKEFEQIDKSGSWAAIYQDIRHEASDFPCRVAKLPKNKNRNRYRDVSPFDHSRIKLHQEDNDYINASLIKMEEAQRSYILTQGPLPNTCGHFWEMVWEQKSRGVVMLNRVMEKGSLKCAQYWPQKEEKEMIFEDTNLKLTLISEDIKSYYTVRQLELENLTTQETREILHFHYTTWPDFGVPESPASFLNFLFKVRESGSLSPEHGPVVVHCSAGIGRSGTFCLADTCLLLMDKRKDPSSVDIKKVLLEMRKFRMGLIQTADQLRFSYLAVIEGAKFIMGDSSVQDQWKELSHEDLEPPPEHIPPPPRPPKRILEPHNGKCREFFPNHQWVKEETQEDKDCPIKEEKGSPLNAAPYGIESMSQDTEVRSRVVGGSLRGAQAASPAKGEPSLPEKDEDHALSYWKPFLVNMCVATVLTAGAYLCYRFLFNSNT
In words: in vitro EnzChek phosphate assay of PTP1B against synthesized phosphopeptides. It is filed as biochemical. Conditions: for kcat/Km / Km: peptide as substrate of PTP1B, value ± spread as printed; for recognition as substrate by PTP1B (in words): compared with Src positive control peptide. Here is the method: (§1) To test if the predicted phosphopeptides would indeed be in vitro substrates of PTP1B, we synthesized six of these peptides. The two peptides from JAK1 were not synthesized and tested because the sequences are highly similar to the ones of the known substrates JAK2[20] and MET[21] that were also detected by our procedure. […] (Table 1).
PTP1B was expressed and purified as described previously.[3]
The in vitro EnzChek phosphate assay was carried out with the commercial kit from Molecular Probes as described previously.[23]

The target in data set [2] is T1, PTP1B. Conditions: JAK2-derived phosphopeptide as PTP1B substrate; cited from earlier work. An excerpt:
To test if the predicted phosphopeptides would indeed be in vitro substrates of PTP1B, we synthesized six of these peptides. The two peptides from JAK1 were not synthesized and tested because the sequences are highly similar to the ones of the known substrates JAK2[20] and MET[21] that were also detected by our procedure. […] With the ex ...

Data set [3] can be described thus: Solubility of synthesized peptide (observation). The class given is physicochemical. The note with it: qualitative; peptide therefore not tested in the enzymatic assay.
Text: as §1

In the case of “DNEDVpYTFKTP [Peptide 3, Predicted PTP1B phosphopeptide substrate from GAB2, pY site 293]”, at PTP1B [1], the kcat/Km is given as 9.2 ± 1.6 ×10^−5 M^−1 s^−1. The Km on PTP1B [1] (read-out: Km) was determined as 17.1 ± 4.1 µM.

For “KKKKpYPKK [Peptide 7, reference compound]”, on PTP1B [1], the “recognition as substrate by PTP1B (in words)” value is recorded as “not recognized”, the Km result is “Inactive” and the kcat/Km entry is “Inactive”.

In the case of “DPSDNpYAEPID [Peptide 1, Predicted PTP1B phosphopeptide substrate from ARHGAP5, pY site 1090]”, the kcat/Km at PTP1B [1] was 11.6 ± 3.4 ×10^−5 M^−1 s^−1. Besides, the Km on PTP1B [1] (read-out: Km) turned out to be 28.5 ± 5 µM.

With KEpYpYKVK, at PTP1B [2], the Km was 12.7 µM and the kcat/Km was 0.000232 M⁻¹ s⁻¹.

“IEDNEYTARQG [Fyn peptide, synthesized predicted phosphopeptide from Fyn]”: the solubility result in data set [3] is “poor solubility”.

Turning to “IEDPpYpYGNDSD [Peptide 4, Predicted PTP1B phosphopeptide substrate from ACP1, pY site 133]”, the kcat/Km on PTP1B [1] is recorded as 8.9 ± 1.1 ×10^−5 M^−1 s^−1. The Km on PTP1B [1] (read-out: Km) was 20.1 ± 4.6 µM.

For the substance “EEEDIpYEVLPD [Peptide 2, Predicted PTP1B phosphopeptide substrate from SKAP1, pY site 271]”, the kcat/Km at PTP1B [1] is reported as 27.9 ± 13.9 ×10^−5 M^−1 s^−1. For the same substance, the Km on PTP1B [1] (read-out: Km) came out at 14.7 ± 3.2 µM.

In the case of “STEPQpYQPGEN [Peptide 6, positive control peptide from Src as known substrate of PTP1B, reference compound]”, at PTP1B [1], the kcat/Km is on record as 9.0 ± 3.7 ×10^−5 M^−1 s^−1. For the same substance, the Km on PTP1B [1] (read-out: Km) stood at 29.1 ± 5.3 µM.

For “QENPIpYKSPIN [Peptide 5, Predicted PTP1B phosphopeptide substrate from ITGB1, pY site 783]”, the kcat/Km on PTP1B [1] is listed as 7.1 ± 3.0 ×10^−5 M^−1 s^−1. In addition, the Michaelis-Menten constant (Km) on PTP1B [1] (read-out: Km) was 21.7 ± 8.9 µM.

For the substance LGSRApYPHFCA [Peptide 8], the “recognition as substrate by PTP1B (in words)” value on PTP1B [1] is “recognized it poorly”. The Michaelis constant (Km) at PTP1B [1] (read-out: Km) is above 300 µM.
